“Also recorded” adds a separate entry of the source.
Assays:
COX-1 = assay: Western blot of COX-1 in paw exudates; format: in vivo, rat; settings: NOSH-1 at 2 doses one hour before carrageenan
Procedure: Exudates (oedema fluid) and some tissue were homogenized in lysis buffer (0.1% Triton X-100, 50 μM pepstatin, 0.2 mM leupeptin, 1 μg/mL aprotinin, 10 mg/ml phenylmethylsulfonyl fluoride, 50 mM Tris, and 10 mM EDTA). Samples were then centrifuged, and the protein concentration of the supernatant was determined by colorimetric assay (Bio-Rad, Hercules, Calif.). Protein (30 μg) was separated on a 10% polyacrylamide gel and then transferred to a nitrocellulose membrane (Bio-Rad, Hercules, Calif.). Proteins were probed with monoclonal mouse antibody against COX-1 and COX-2 (1:500; Cayman Chemical, Ann Arbor, Mich.). The membrane was then incubated with a goat anti-mouse IgG secondary antibody conjugated to horseradish peroxidase (Santacruz Biotechnology, Santa Cruz, Calif.). A chemiluminescence reagent (Amersham Pittsburg, Pa.) was added to visualize the labeling according to the manufacturer's instructions.

HT-29 colon cancer cells [1] = assay: Cell proliferation, PCNA expression; format: cell-based, human; settings: 24 hours
Procedure: (§1) Growth inhibition was measured using a colorimetric MTT assay kit (Roche, Indianapolis, Ind.). Proliferation (PCNA) was assessed using an ELISA kit from Calbiochem, (La Jolla, Calif.). Cell cycle phase distributions and apoptosis of control and treated cells were determined as previously described. All methods are described in Chattopadhyay et al., Biochemical Pharmacology, 2012, 83(6), 715-722.

HT-29 colon cancer cells [2] = assay: Apoptosis, Annexin V staining and flow cytometry; format: cell-based, human
Procedure: as §1

HT-29 cells xenograft = assay: HT-29 tumor xenograft in athymic nude mice; format: in vivo, mouse
Procedure: Male athymic nude (NU/NU) mice (N=8), age 5 weeks, were purchased from Charles River Laboratories, Inc., (Wilmington, Mass.). HT-29 cells (2×10^6) suspended in 50% v/v Matrigel (BD Biosciences, San Jose, Calif.) were inoculated subcutaneously in the right flanks of each mouse. When the tumors reached an average sizes of ˜80 mm^3, the mice were randomly divided (N=4/group) and gavaged daily for 18 days with either vehicle (1% methylcelloluse) or NOSH-1 (100 mg/kg body weight). Tumor size (length and width) was measured at 3 day intervals with an electronic caliper from which tumor volume was calculated as length×width^2/2. The mice were weighed every 3 days and were closely monitored for signs of toxicity.

[3] = tested on: eleven different cancer cell lines; assay: MTT cell growth inhibition, all cell lines of the panel; format: cell-based; settings: Homo sapiens; 24 hr; colon, breast, pancreas, lung, prostate, leukemia cancer cell lines of Table 1
Procedure: HT-29, SW-480 and HCT-15 human colon adenocarcinoma, MIA PaCa-2 and BxPC-3 human pancreatic cancer, LNCAP human prostate cancer, A549 human lung cancer, MCF-7 (estrogen receptor positive), MDA-MB 231 and SK-BR-3 (estrogen receptor negative) human breast cancer, and Jurkats human leukemia cell lines were obtained from American Type Tissue Collection (Manassas, Va.). All cells lines were grown as monolayers except for the Jurkats which were grown in suspension. […] Single cell suspensions were obtained by trypsinization (0.05% trypsin/EDTA), and cells were counted using a hemocytometer. Viability was determined by the trypan blue dye exclusion method.
Cell growth inhibitory effect of NOSH compounds were measured using a colorimetric MTT assay kit (Roche, Indianapolis, Ind.). […] The absorbance of the plates was measured on an ELISA reader at a wavelength of 570 nm. […]
HT-29, SW-480 and HCT-15 human colon adenocarcinoma, MIA PaCa-2 and BxPC-3 human pancreatic cancer, LNCAP human prostate cancer, A549 and H383 human lung cancer, MCF-7, MDA-MB 231 and SK-BR-3 human breast cancer and Jurkat T cell human leukemia cell lines were obtained from American Type Tissue Collection (Manassas, Va.) All cells lines were grown as monolayers except for the Jurkat T cells which were grown as suspension culture. […] Viability was determined by the trypan blue dye exclusion method. […]

Row | SMILES | COX-1 expression in paw exudates induced by carrageenan (COX-1) | reduction of PCNA expression (HT-29 colon cancer cells [1]; 0.5×IC50 (25 nM)) | reduction of PCNA expression (HT-29 colon cancer cells [1]; 1×IC50 (50 nM)) | reduction of PCNA expression (HT-29 colon cancer cells [1]; 2×IC50 (100 nM)) | cells in early apoptotic phase (HT-29 colon cancer cells [2]; 0.5×IC50, 24 hours) | cells in early apoptotic phase (HT-29 colon cancer cells [2]; 1×IC50, 24 hours) | cells in early apoptotic phase (HT-29 colon cancer cells [2]; 2×IC50, 24 hours) | signs of toxicity (HT-29 cells xenograft; 100 mg/kg daily for 18 days) | mean reduction of tumor volume (HT-29 cells xenograft; 100 mg/kg daily for 18 days, vs control) | mean tumor volume (HT-29 cells xenograft; 100 mg/kg daily gavage for 18 days, control 2300±200) | tumor volume versus vehicle (FIG. 7B) (HT-29 cells xenograft; 6 days after treatment to sacrifice, P<0.05 day 6, P<0.01 days 9-18) | average weight of the mice, beginning of the study (HT-29 cells xenograft; treated mice, 100 mg/kg daily) | average weight of the mice, end of the study (HT-29 cells xenograft; treated mice, 100 mg/kg daily for 18 days) | IC50 [3]
1 | O=C(CCCO[N+](=O)[O-])Oc1ccccc1C(=O)Oc1ccc(-c2cc(=S)ss2)cc1 [NOSH-1, 4-(3-thioxo-3H-1,2-dithiol-5-yl)phenyl 2-((4-(nitrooxy)butanoyl)oxy)benzoate] | inhibited induction; also recorded: inhibited to the same extent | 18.2±1.5% | 50.3±3.2% | 77.4±2.2% | 24.7±1.4% | 32.8±2.1% | 55.9±3.3% | no overt signs of toxicity | 85% | 350±35 mm^3 | significantly reduced tumor volume | 21.7 ± 0.82 g | 27.2 ± 1.1 g | 
2 | CC(=O)Oc1ccccc1C(=O)O [ASA, aspirin, reference compound] |  |  |  |  |  |  |  |  |  |  |  |  |  | > 5 mM

— patent publication US10450260B2, “NO- and H2S-releasing compounds” (RESEARCH FOUNDATION OF THE CITY UNIVERSITY OF NEW YORK, priority 2011, dated 2019)
